Experiments:
APOL1 G2 [1] = target: T1, APOL1 G2 (Homo sapiens, UniProt O14791, DEL388-389); experiment: APOL1 calcium transport inhibition assay (GCaMP6f calcium influx, FLIPR) in HEK T-REx/GCaMP6f/APOL1 G2 K6.3 cells; format: cell-based; conditions: inhibition of APOL1-mediated calcium influx; geometric mean of at least 2 assay runs, † = single assay run (technical duplicate)
T1 construct: expressed in transfected cells; host or cells: HEK293 T-REx clonal lines: HEK T-REx/GCaMP6f/APOL1 G2 K6.3 in A1, HEK293/T-REx APOL1 G2/clone #2 in A2
T1 sequence (O14791 with tags, fused parts or gaps DEL388-389): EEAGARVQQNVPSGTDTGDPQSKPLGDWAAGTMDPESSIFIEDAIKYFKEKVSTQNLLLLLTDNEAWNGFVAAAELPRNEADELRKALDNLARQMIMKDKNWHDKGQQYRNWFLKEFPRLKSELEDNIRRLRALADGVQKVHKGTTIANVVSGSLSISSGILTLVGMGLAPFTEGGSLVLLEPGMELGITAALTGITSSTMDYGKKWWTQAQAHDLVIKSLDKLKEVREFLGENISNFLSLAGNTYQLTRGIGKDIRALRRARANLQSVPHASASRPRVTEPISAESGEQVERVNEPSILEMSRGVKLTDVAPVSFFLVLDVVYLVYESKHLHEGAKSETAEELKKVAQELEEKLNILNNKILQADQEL
In short: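 HEK293 cells stably expressing GCaMP6f, APOL1 G2 induced 6 h with doxycycline (20 ng/mL added), then washed into Ca2+-free Tyrode's buffer pH 7.4. Compounds (8-point dose response) preincubated 10 min at room temperature, then Ca2+ injected to 5 mM final and influx read on FLIPR. AC50 reported as geometric mean of runs.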

APOL1 G2 [2] = target: T1, APOL1 G2; experiment: Rescue of HEK293 cell death caused by overexpression of APOL1 (CellTiter-Glo luminescence), HEK293/T-REx APOL1 G2/clone #2; format: cell-based; conditions: reversal of cell death caused by overexpression of APOL1; geometric mean of at least 2 assay runs, † = single assay run (technical duplicate)
In short: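 HEK293/T-REx APOL1 G2 clone #2 cells, 5,000/well, induced with 6 ng/mL doxycycline and exposed to compound (8-point, 3-fold dilutions, 0.5% DMSO) for 17 h at 37 °C. Viability by CellTiter-Glo luminescence; EC50 for reversal of APOL1-induced death from a four-parameter logistic fit, geometric mean of ≥2 runs.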

Row | AC50 (APOL1 G2 [1]) [µM] | Compound | EC50 (APOL1 G2 [2]) [µM]
1 | 0.456 | CC1CC(COc2ccc(S(C)(=O)=O)cc2)CN1CCc1cc(Cl)cc(C#N)c1 (single isomer, unassigned) [Compound 204, 3-chloro-5-(2-((2R,4S or 2S,4R or 2S,4S or 2R.4R)-2-methyl-4-((4-(methylsulfonyl)phenoxy)methyl)pyrrolidin-1-yl)ethyl)benzonitrile] | 0.0423
2 | 2.83 | CN(c1ccc(OC[C@@H](O)CN2CCC(c3cccc(Cl)c3)C2)cc1)S(C)(=O)=O (single isomer, unassigned) [Compound 76, N-(4-((S)-3-((R) or (S)-3-(3-chlorophenyl)pyrro-lidin-1-yl)-2-hydroxypropoxy)phe-nyl)-N-methylmethanesulfon-amide] | > 6.28
3 | 0.063 | C[C@H]1CN(CCc2cccc(Cl)c2)C[C@@H]1COc1ccc(S(=O)(=O)CCCS(C)(=O)=O)cc1 (single isomer, unassigned) [Compound 176, (3R,4R or 3S,4S)-1-[2-(3-chlorophenyl)eth-yl]-3-{[4-(3-methanesulfonylpro-panesulfonyl)phe-noxy]methyl}-4-methylpyrrolidine] | < 0.0472
4 | 0.382 | C[C@@H]1CC[C@H](COc2ccc(S(C)(=O)=O)cc2)CN1CCc1cccc(Cl)c1 [Compound 160, (2R,5S)-1-[2-(3-chlorophenyl)ethyl]-5-[(4-methanesulfonylphenoxy)methyl]-2-methylpiperidine] | 0.584
5 | 4.14 | CN(c1ccc(OC[C@@H](O)CNCCc2cccc(C#N)c2)cc1)S(C)(=O)=O [Compound 99, (S)-N-(4-(3-((3-cyanophenethyl)a-mino)-2-hydroxypropoxy)phe-nyl)-N-methylmethanesulfon-amide] | > 30
6 | 0.149 | CC(C)(CO)S(=O)(=O)c1ccc(OC[C@@H]2CN(CCc3cc(Cl)cc(C#N)c3)CCN2)cc1 [Compound 183, 3-chloro-5-{2-[(3S)-3-{[4-(1-hydroxy-2-methylpropane-2-sulfonyl)phenoxy]methyl}pi-perazin-1-yl]ethyl}benzo-nitrile] | 0.157
7 | 0.0712 | C[C@H]1CN(CCc2cccc(Cl)c2)C[C@@H]1COc1ccc(N(C)S(C)(=O)=O)cc1 (racemic) [Compound 45, rac-trans-N-(4-((1-(3-chlorophenethyl)-4-methylpyrrolidin-3-yl)methoxy)phenyl)-N-methylmethanesulfonamide] | < 0.0137
8 | 2.39 | CN(c1ccc(OCC2CN(CCc3cccc(Cl)c3)CCCO2)cc1)S(C)(=O)=O (single isomer, unassigned) [Compound 12, (S) or (R)-N-(4-((4-(3-chlorophenethyl)-1,4-oxazepan-2-yl)methoxy)phenyl)-N-methylmethane-sulfonamide] | 3
9 | 1.54 | COC(CN1CCC[C@@H](COc2ccc(S(C)(=O)=O)cc2)C1)c1cccc(Cl)c1 (single isomer, unassigned) [Compound 26, (R)-1-((S)-2-(3-chlorophenyl)-2-methoxyethyl)-3-((4-(methylsulfonyl)phenoxy)methyl)piperidine or (R)-1-((R)-2-(3-chlorophenyl)-2-methoxyethyl)-3-((4-(methylsulfonyl)phenoxy)methyl)piperidine] | 2.24
10 | 0.231 | CS(=O)(=O)c1ccc(OC[C@H]2CCCN(CCc3cccc(Cl)c3)C2)cc1 [Compound 16, (S)-1-(3-chlorophenethyl)-3-((4-(methylsulfonyl)phenoxy)methyl)piperidine] | 0.329
11 | 0.358 | CN=S(C)(=O)c1ccc(OC[C@H]2C[C@@H](C)N(CCc3cccc(C#N)c3)C2)cc1 (single isomer, unassigned) [Compound 159, 3-{2-[(2R,4S)-2-methyl-4-({4-[(S or R)methyl(methyli-mino)oxo-λ^6-sulfanyl]phenoxy}methyl)pyrrolidin-1-yl]ethyl}benzonitrile] | 0.0249
12 | 0.817 | CC1CC(COc2ccc(S(C)(=O)=O)cc2)CN1CCc1cc(Cl)cc(C#N)c1 (single isomer, unassigned) [Compound 199, rac-cis or trans-3-chloro-5-{2-[4-[(4-methanesulfonylphenoxy)methyl]-2-methylpyrrolidin-1-yl]ethyl}benzonitrile] | 2.44
13 | < 0.253 | CN(c1ccc(OCC2CCCN(CCc3cccc(Cl)c3)C2)cc1)S(C)(=O)=O (centres unmarked) [Compound 7, N-(4-((1-(3-chlorophenethyl)piperidin-3-yl)methoxy)phenyl)-N-methylmethanesulfonamide] | 0.322
14 | 0.709 | C[C@@H]1C[C@H](COc2ccc(S(C)(=O)=O)cc2)CN1CC(O)c1cc(Cl)cc(C#N)c1 (single isomer, unassigned) [Compound 114, 3-chloro-5-[(1S or 1R)-1-hydroxy-2-[(2R,4S)-4-[(4-methanesulfonylphenoxy)methyl]-2-methylpyrrolidin-1-yl]ethyl] benzonitrile] | 0.439
15 | 0.338 | CC(Cc1cccc(Cl)c1)NC[C@@H](O)COc1ccc(N(C)S(C)(=O)=O)cc1 (single isomer, unassigned) [Compound 88, N-(4-((R)-3-(((S) or (R)-1-(3-chlorophenyl)propan-2-yl)amino)-2-hydroxypropoxy)phe-nyl)-N-methylmethanesulfon-amide] | 0.698
16 | 0.198 | CN=S(C)(=O)c1ccc(OC[C@@H]2CN(CCc3cc(Cl)cc(C#N)c3)CCN2)cc1 (single isomer, unassigned) [Compound 187, 3-chloro-5-{2-[(3S)-3-({4-[(S or R)-methyl(methyl-imino)oxo-λ^6-sulfanyl]pheno-xy}methyl)pipera-zin-1-yl]ethyl}benzo-nitrile] | 0.436
17 | 3.78 | COC1CCN(CCc2cccc(Cl)c2)CC1COc1ccc(S(C)(=O)=O)cc1 (single isomer, unassigned) [Compound 35, (3S,4R) or (3R,4R) or (3S,4S) or (3R,4S)-1-(3-chlorophenethyl)-4-methoxy-3-((4-(methylsulfonyl)phenoxy)methyl)piperidine] | 6.13
18 | 0.212 | CN=S(C)(=O)c1ccc(OC[C@@H]2CN(CCc3cccc(C#N)c3)C[C@H]2C)cc1 (single isomer, unassigned) [Compound 171, 3-{2-[(3S,4S)-3-methyl-4-({4-[(S or R)-methyl(methylimi-no)oxo-λ^6-sulfanyl]phenoxy}methyl)pyrrolidin-1-yl]ethyl}benzonitrile] | 0.146
19 | 2.22 | CC1(C)CC(COc2ccc(S(C)(=O)=O)cc2)CN1CCc1cccc(Cl)c1 (single isomer, unassigned) [Compound 44, (R) or (S)-1-(3-chlorophenethyl)-2,2-dimethyl-4-((4-(methylsulfonyl)phenoxy)methyl)pyrrolidine] | 2.43
20 | 0.245 | CN(c1ccc(OC[C@@H](O)CN(CCc2cccc(Cl)c2)CC2CC2)cc1)S(C)(=O)=O [Compound 59, (S)—N-(4-(3-((3-chlorophenethyl)(cyclopropylmethyl)amino)-2-hydroxypropoxy)phenyl)-N-methylmethanesulfonamide] | 1.06
21 | 0.946 | CN(c1ccc(NCC(O)CNCCc2cccc(Cl)c2)cc1)S(C)(=O)=O (centres unmarked) [Compound 105, N-(4-((3-((3-chlorophenethyl)a-mino)-2-hydroxypropyl)ami-no)phenyl)-N-methylmethanesulfon-amide] | > 12.4
22 | 0.0727 | CC1CC(COc2ccc(S(C)(=O)=O)cc2)CN1CCc1cccc(Cl)c1 (single isomer, unassigned) [Compound 58, (2S,4S) or (2R,4S) or (2R,4R) or (2S,4R)-1-(3-chlorophenethyl)-2-methyl-4-((4-(methylsulfonyl)phenoxy)methyl)pyrrolidine] | < 0.041
23 | 1.37 | CS(=O)(=O)c1ccc(OC[C@H]2CCCN(CC(O)c3cccc(Cl)c3)C2)cc1 (stereo partly drawn) [Compound 17, 1-(3-chlorophenyl)-2-((S)-3-((4-(methylsulfonyl)phenoxy)methyl)piperidin-1-yl)ethan-1-ol] | 0.671
24 | < 0.118 | CC1CNC(COc2ccc(S(C)(=O)=O)cc2)CN1CCc1cccc(Cl)c1 (centres unmarked) [Compound 211, 1-[2-(3-chlorophenyl)ethyl]-5-[(4-methanesulfonylphenoxy)methyl]-2-methylpiperazine] | 1.36
25 | 0.491 | C[C@@H]1CN(CCc2cc(Cl)cc(C#N)c2)C[C@H]1COc1ccc(S(=O)(=O)C2CNC2)cc1 [Compound 173, 3-{2-[(3S,4S)-3-{[4-(azetidine-3-sulfonyl)phenoxy]methyl}-4-methylpyrrolidin-1-yl]ethyl}-5-chlorobenzonitrile] | 0.201
